Test results from patent EP1452605A1, “Method for determining antiviral activity” (Universiteit Utrecht Holding B.V., priority 2003, dated 2004).
Values belong to the compound of their own block, whether it stands above or below them.

What was measured:
PBMC = experiment: Cellular viability assay (MTT) of PBMC; details: PBMC
HIV-1Ba-L [1] = experiment: HIV-1 infection of PBMC, p24-core antigen ELISA; type: cell-based; details: for antiviral activity compared to APHS / antiviral activity compared to compound 18: PBMC, HIV-1Ba-L
Procedure: To correct for the input virus, an extra control consisting of medium containing the same amount of input virus as added to the cells was included in the experiment. The amount of p24 in this control was subsequently subtracted from the p24 values of the samples in order to obtain the exact amount of p24 produced by the cells. p24-core antigen quantification by ELISA After 2 or 7 days incubation, samples of the supernatants were collected, inactivated by addition of Empigen (Calbiochem, La Jolla, CA, USA) and by heat inactivation at 56°C for 30 min. p24-core antigen concentration was determined by an enzyme linked immunoabsorbent assay (ELISA) (AMPAK™, DAKO, Cambridgeshire, UK) as described previously ^18,19. The optical density values were converted into p24 concentration (ng/ml) with the use of a calibration curve made by serial dilutions of recombinant p24 protein (NIBSC, UK) that was submitted to the same treatment as the samples.
(§1) To correct for the input virus, an extra control consisting of medium containing the same amount of input virus as added to the cells was included in the experiment. The amount of p24 in this control was subsequently subtracted from the p24 values of the samples in order to obtain the exact amount of p24 produced by the cells.
(§2) After 7 days incubation, samples of the supernatants were collected, inactivated by addition of Empigen (Calbiochem, La Jolla, CA, USA) and by heat inactivation at 56°C for 30 min. p24-core antigen concentration was determined by an ELISA (AMPAK™, DAKO, Cambridgeshire, UK) as described previously ^39,40. The optical density values were converted into p24 concentration (ng/ml) with the use of a calibration curve made by serial dilutions of recombinant p24 protein (NIBSC, UK) that was submitted to the same treatment as the samples.
as §1
as §2, with “enzyme linked immunoabsorbent assay (ELISA)” for “ELISA”, “15,16.” for “^39,40.”

COX-2 = molecular target: T1, COX-2 (Homo sapiens, UniProt P35354); details: cited from earlier work
T1 sequence (P35354 18-604): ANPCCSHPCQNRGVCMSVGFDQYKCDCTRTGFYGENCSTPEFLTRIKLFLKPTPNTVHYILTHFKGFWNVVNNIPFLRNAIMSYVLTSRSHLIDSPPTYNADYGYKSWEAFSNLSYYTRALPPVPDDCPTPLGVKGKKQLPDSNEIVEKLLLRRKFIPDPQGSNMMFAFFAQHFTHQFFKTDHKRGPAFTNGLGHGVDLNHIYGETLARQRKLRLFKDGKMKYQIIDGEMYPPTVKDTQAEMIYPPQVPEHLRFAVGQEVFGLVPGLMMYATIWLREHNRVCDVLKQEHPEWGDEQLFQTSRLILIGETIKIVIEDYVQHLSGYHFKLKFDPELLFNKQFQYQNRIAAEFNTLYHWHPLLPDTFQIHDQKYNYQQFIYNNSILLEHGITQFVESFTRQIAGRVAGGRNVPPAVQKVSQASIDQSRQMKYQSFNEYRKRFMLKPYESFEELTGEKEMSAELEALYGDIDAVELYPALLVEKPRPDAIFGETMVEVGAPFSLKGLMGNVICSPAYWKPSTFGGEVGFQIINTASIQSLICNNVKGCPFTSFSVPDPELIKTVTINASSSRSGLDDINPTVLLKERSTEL

HIV-1Ba-L [2] = experiment: Combination of HIV-1 inhibitors in HIV-1Ba-L infected PBMC (checker board, CalcuSyn)
in vitro = details: human, pbmc
[3] = Human immunodeficiency virus 1, PBMC, 168 h
[4] = Human immunodeficiency virus 1, PBMC, 168 h, read-out: IC50 Drug, drug alone, head over this column prints Combination
[5] = read-out: IC50 Combination Drug, drug in combination with APHS at the equipotent ratio (1 : 1)
[6] = Human immunodeficiency virus 1, 168 h, PBMC infected with HIV-1Ba-L, p24 antigen after 7 days, read-out: IC50
[7] = PBMC infected with HIV-1Ba-L, p24 antigen after 7 days, read-out: IC50

Compound: CCCCOCCSc1ccccc1OC(=O)C(F)(F)F [compound 7, Acetic acid, trifluoro-, 2-(2-butoxyethylthio)phenylester]
cytotoxicity compared to APHS (PBMC): decreased | antiviral activity compared to APHS (HIV-1Ba-L [1]): decreased

Compound: CCCCCSc1ccccc1OC(C)=O [compound 20]
antiviral activity compared to compound 18 (HIV-1Ba-L [1]): worse

IC50 (HIV-1Ba-L [1]; [3]): 3 µM
Compound: CCCCSc1ccccc1O [compound 21]
antiviral activity compared to APHS (HIV-1Ba-L [1]): improved

Compound: CCCCCSc1ccccc1O [compound 19]
IC50 (HIV-1Ba-L [1]; [3]): 0.9 µM | antiviral activity compared to APHS (HIV-1Ba-L [1]): improved

Compound: CCCCC#CCS(=O)(=O)c1ccccc1OC(C)=O [APHS-d1]
COX-2 activity, potency and selectivity compared with APHS (COX-2): without anti-COX-2 activity

IC50 (HIV-1Ba-L [2]; [4]): 0.006 µM | IC50 (HIV-1Ba-L [2]; [5]): 0.003 µM
Compound: CC(C)c1nc(CN(C)C(=O)N[C@H](C(=O)N[C@@H](Cc2ccccc2)C[C@H](O)[C@H](Cc2ccccc2)NC(=O)OCc2cncs2)C(C)C)cs1 [RTV, ritonavir]

Compound: CCCCCCCSc1ccccc1OC(C)=O [APHS-d2]
COX-2 activity, potency and selectivity compared with APHS (COX-2): as potent as APHS but less selective against COX-2 than APHS

IC50 (HIV-1Ba-L [1]; [3]): 4 µM
Compound: CCSc1ccccc1O [compound 25]
antiviral activity compared to APHS (HIV-1Ba-L [1]): improved

Compound: CCCCC#CCSc1ccccc1O [APHS-d3]
COX-2 activity, potency and selectivity compared with APHS (COX-2): without COX-2 activity

IC50 (HIV-1Ba-L [1]; [6]): 10 µM
Compound: CCCCCCCSc1ccccc1OC(C)=O [compound 11]
CC50 at 168 h (in vitro): 48 µM

IC50 (HIV-1Ba-L [2]; [4]): 0.01 µM | IC50 (HIV-1Ba-L [2]; [5]): 0.003 µM
Compound: Nc1ccn([C@@H]2CS[C@H](CO)O2)c(=O)n1 [3TC, lamivudine]

IC50 (HIV-1Ba-L [1]; [7]): 3 µM
Compound: CCCCCCCSc1ccc(O)cc1 [compound 15]
cytotoxicity compared to APHS (PBMC): increased | fold increase in cytotoxicity compared to APHS (PBMC): about 10 | antiviral activity compared to APHS (HIV-1Ba-L [1]): increased

Compound: CCCSc1ccccc1OC(C)=O [compound 24]
antiviral activity compared to compound 18 (HIV-1Ba-L [1]): worse

IC50 (HIV-1Ba-L [1]; [7]): 3 µM
Compound: CCCCCCSc1ccccc1OC(C)=O [compound 18]
CC50 (PBMC; read-out: TC50, 7 days, MTT): 119 µM

Compound: CCCCSc1ccccc1OC(C)=O [compound 22]
antiviral activity compared to compound 18 (HIV-1Ba-L [1]): worse

Compound: CC(=O)Oc1ccccc1C(=O)O [aspirin, reference compound]
times less potent than APHS against COX-2 (COX-2): 60 | times less selective than APHS for COX-2 (COX-2): 100

Compound: CCCCCCCSc1ccccc1OC(=O)c1ccccc1 [compound 14, Phenol, 2-(heptylthio)-, benzoate]
cytotoxicity compared to APHS (PBMC): increased | antiviral activity compared to APHS (HIV-1Ba-L [1]): decreased

Compound: CCCCCCCSc1ccccc1OC(=O)C(F)(F)F [compound 12, Acetic acid, trifluoro-, 2-(heptylthio) phenylester]
cytotoxicity compared to APHS (PBMC): decreased | antiviral activity compared to APHS (HIV-1Ba-L [1]): decreased

Compound: CCCCCCCSc1ccccc1OC(=O)CCCC [compound 13, Phenol, 2-(heptylthio)-, valerate]
cytotoxicity compared to APHS (PBMC): decreased | antiviral activity compared to APHS (HIV-1Ba-L [1]): decreased

IC50 (HIV-1Ba-L [1]; [3]): 5 µM
Compound: CCCSc1ccccc1O [compound 23]
antiviral activity compared to APHS (HIV-1Ba-L [1]): improved

IC50 (HIV-1Ba-L [1]; [6]): 20 µM
Compound: CCCCCCCCSc1ccccc1OC(C)=O [compound 9]
CC50 at 168 h (in vitro): 135 µM

IC50 (HIV-1Ba-L [1]; [3]): 4 µM
Compound: CCCCCCSc1ccccc1O [compound 17]
cytotoxicity compared to APHS (PBMC): increase | antiviral activity compared to APHS (HIV-1Ba-L [1]): improvement

Compound: CSc1ccccc1OC(C)=O [APHS-d4]
COX-2 activity, potency and selectivity compared with APHS (COX-2): more selective than APHS | times less potent than APHS against COX-2 (COX-2): 100

Compound: CCSc1ccccc1OC(C)=O [compound 26]
antiviral activity compared to compound 18 (HIV-1Ba-L [1]): worse

Compound: CCCCCCCSc1ccccc1O [compound 10]
cytotoxicity compared to APHS (PBMC): increase | antiviral activity compared to APHS (HIV-1Ba-L [1]): less antiviral activity than APHS

Compound: CCCCC#CCSc1ccccc1OCC [compound 1, Benzene, 1-ethoxy-2-(2-heptynylthio)-]
cytotoxicity compared to APHS (PBMC): decreased | antiviral activity compared to APHS (HIV-1Ba-L [1]): decreased

IC50 (HIV-1Ba-L [2]; [4]): 0.011 µM | IC50 (HIV-1Ba-L [2]; [5]): 0.005 µM
Compound: CC(C)(C)NC(=O)[C@@H]1CN(Cc2cccnc2)CCN1C[C@@H](O)C[C@@H](Cc1ccccc1)C(=O)N[C@H]1c2ccccc2C[C@H]1O [IDV, indinavir]

IC50 (HIV-1Ba-L [2]; [4]): 0.001 µM | IC50 (HIV-1Ba-L [2]; [5]): 0.0002 µM
Compound: O=C1Nc2ccc(Cl)cc2[C@@](C#CC2CC2)(C(F)(F)F)O1 [EFV, efavirenz]

Compound: CCCCCCCCSc1ccccc1O [compound 8]
cytotoxicity compared to APHS (PBMC): increase | antiviral activity compared to APHS (HIV-1Ba-L [1]): less antiviral activity than APHS

IC50 (HIV-1Ba-L [1]; [6]): 2 µM
Compound: CCCCCCCSc1ccc(OC(C)=O)cc1 [compound 16, Phenol, 4-(heptylthio)-, acetate]
cytotoxicity compared to APHS (PBMC): increase | fold increase in cytotoxicity compared to APHS (PBMC): about 10 | antiviral activity compared to APHS (HIV-1Ba-L [1]): increase
